For one series, the system named is tumor in nude mice. The settings on record: cited from earlier work.
Another series has as its system AML patients. Kind of series: Clinical outcome of AML patients treated with tipifarnib versus NK cell biomarker expression in bone marrow (GSE8970/CTEP-20, GSE5122). The series is classed as in vivo, human. The settings on record: for Exp(b), Cox proportional hazards regression: AML patients treated with tipifarnib. As to the method: The current study used microarray data generated from global gene expression assay of bone marrow samples collected in two clinical studies investigating the efficacy and safety of FTI tipifarnib. One clinical study was conducted in adult patients aged 65 years or older with previously untreated AML, and the other conducted in relapsed and refractory AML. The clinical results for these studies were previously published (Lancet et al., Blood 109:1387-1394 (2007); Harousseau et al., Blood 9:9 (2007); Raponi et al., Clin. Cancer Res. 13:2254-2260 (2007)), and the gene profiling data were publically available in NCBI's Gene Expression Omnibus (GEO, http://www.ncbi.nlm.nih.gov/geo) and are assessable through GEO Series accession numbers GSE8970 and GSE5122.
As described in Raponi et al., Blood 111:2589-96 (2008), BM samples were collected from consenting patients before treatment with tipifarnib, and mononuclear cells were processed on site. Total RNA was extracted from cell samples, quality controlled, and further processed for microarray analysis. DNA was isolated from the same sample. Samples were assayed for global gene expression, and/or quantitative polymerase chain reaction (QPCR) of specific genes).
Briefly, CR was defined as BM showing less than 5% myeloblasts with normal maturation of all cell lines, absolute neutrophil count (ANC) of at least 10^9/L (1000/μL), and a platelet count of 100×10^9/L (100 000/μL). PR was defined as the presence of recovery of ANC and platelets to the above stated levels, but with 5% to 19% BM blasts, and a greater than 50% decrease in BM blast percentage from baseline. HI was defined as the same as PR, except with recovery of ANC to 0.5 to 1×10^9/L (500 to 1000/μL) and platelet count to 20 to 100×10^9/L (20 000 to 100 000/μL). Progressive disease (PD) was defined as any of the following: more than 50% increase in BM blast percentage from baseline (more than 5% blasts if baseline is less than 5%, more than 10% blasts if baseline is 5% to 10%, and more than 20% blasts if baseline 10% to 20%); greater than 50% increase in circulating blasts; new appearance of circulating blasts on at least 2 consecutive occasions; or development of extramedullary leukemia. Stable disease (SD) was defined as any response not meeting CR, PR, HI, or PD criteria.
Kaplan Meier curves were used to investigate the relationship between biomarker values and clinical benefit. The identification of multiple NK cell related genes, the long duration of response observed in some tipifarnib patients, and the role of RAS mediated signal transduction in NK cells support that the responsiveness of AML patients to tipifarnib treatment could be resulted from bone marrow infiltrates of immune cells.

The test system of series [1] is previously untreated elderly or unfit AML patients. As to the kind of experiment: CTEP-20 phase 2 trial of tipifarnib, outcome by N-RAS gene status. The format is in vivo, human. The settings on record: for PFS: FIG. 8; for ORR (response rate): FIG. 9. As to the method: CTEP-20 was a phase 2 clinical trial of tipifarnib in previously untreated elderly or unfit AML patients. (Raponi et al., Blood 111:2589-96 (2008)).
N-RAS gene status was determined for 32 patients. […] Accordingly, AML patients can be selected based on mutation status of RAS gene for tipifarnib treatment in order to increase the responsiveness to the treatment.

Series [2] relates to relapsed/refractory head-and-neck carcinoma with HRAS mutations. As to the kind of experiment: Phase 2 trial of tipifarnib in advanced tumors with HRAS mutation, cohort 2. The format is in vivo, human. The source says: (§1) A Phase 2 clinical trial was initiated to use tipifarnib in the treatment of advanced tumors with a known HRAS mutation. The clinical trial design includes enrolling 2 cohorts of 18 patients each. Cohort 1 enrolls subjects with malignant thyroid tumors with HRAS mutations, independent of thyroid histology. Cohort 2 enrolls any subject with a non-hematological HRAS mutant tumor other than thyroid cancer who meets eligibility criteria.
(§2) This clinical trial was designed to include two stages, with the first stage including 11 evaluable patients, and the second stage including 7 additional evaluable patients, and a cohort would not proceed to the second stage if one or no objective response is observed in a cohort in the first stage. The clinical trial is considered positive if at least 4 responses are observed in a cohort out of 18 subjects. The primary endpoint is objective response rate, and tumor response assessments are conducted according to the Response Evaluation Criteria in Solid Tumors version 1.1 criteria (confirmation of response is required).
(§3) According to the protocol, tipifarnib is administered to enrolled patients at a starting dose of 900 mg, orally with food, twice a day (b.i.d.) for 7 days in alternating weeks (Days 1-7 and 15-21) in 28 day cycles. At the discretion of the investigator, the dose of tipifarnib can be increased to 1200 mg b.i.d. if the subject has not experienced dose limiting toxicities at the 900 mg dose level. Subjects who develop serious adverse events (SAE) or ≥grade 2 treatment-emergent adverse events (TEAE) that are deemed related to tipifarnib and lasting ≥14 days will not undergo dose escalation. Stepwise 300 mg dose reductions to control treatment-related, treatment-emergent toxicities are also allowed.
(§4) Four (4) evaluable patients were enrolled in the first cohort (patients with malignant thyroid tumors with HRAS mutations) and eleven (11) evaluable patients were enrolled in the second cohort (patients with non-hematologic malignancies other than thyroid cancer with HRAS mutations). In the second cohort, three (3) of those patients have relapsed/refractory head-and-neck carcinoma and two (2) of those three (3) experienced confirmed objective partial responses (PR) and a third patient experienced disease stabilization beyond six months (>8 months). All three head and neck carcinoma patients are HPV negative. All head and neck patients remain on study. […] In addition, five (5) patients enrolled patients have salivary gland cancers with HRAS mutations, and three (3) of them experienced disease stabilization beyond six months (>7, 9 and >11 months). Cohort 2 was proceeded into the second stage of the trial for enrolment of additional seven patients per the trial protocol.

The test system of series [3] is salivary gland cancers with HRAS mutations. The description is as above. The format is in vivo, human.
From the text: as §1, §2, §3, §4

Setting [4] is: 34 previously untreated poor-risk and elderly AML patients.
Setting [5] is: AML patients with 2DS2/2DL2 ratio at the highest (4th) quartile.
Setting [6] is: AML patients with wild type N-RAS.

Molecules are shown by their SMILES. Where “and” joins values, the source holds several entries; their conditions need not be identical. Equal entries are not always repeated.

As to `CC[C@H](C)[C@@H](CO[C@@H](Cc1ccccc1)C(=O)N[C@@H](CCS(C)(=O)=O)C(=O)O)NC[C@@H](N)CS` [L-739749, 2(S)-[2(S)-[2(R)-amino-3-mercapto]propylamino-3(S)-methyl]-pentyloxy-3-phenylpropionyl-methionine sulfone], in the series with tumor in nude mice, the antitumor activity entry is “potent antitumor activity” and the toxicity result is recorded as “without system toxicity”.
On to `Cn1cncc1[C@@](N)(c1ccc(Cl)cc1)c1ccc2c(c1)c(-c1cccc(Cl)c1)cc(=O)n2C` [Tipifarnib, (B)-6-[amino(4-chlorophenyl)(1-methyl-1H-imidazol-5-yl)methyl]-4-(3-ch-lorophenyl)-1-methyl-2(1H)-quinolinone], for which, in the series with AML patients (setting [4]), the “KIR2DS2 High 4th Quartile (Upper) Median Survival” value came to 564 days. Also, the “KIR2DS2 Low 1st-3rd Quartile Median Survival” value in the series with AML patients (setting [4]) came out at 153 days. The “Median Overall Survival” value in the series with AML patients (34 previously untreated poor-risk and elderly AML patients, all) came out at 233 days. Besides, the “median OS” value in the series on AML patients (setting [5]) amounted to 750 days. The “median PFS” value with AML patients (setting [5]) was 431 days. In addition, the “Exp(b), Cox proportional hazards regression” value with AML patients (FIG. 2A: PFS versus KIR2DS2/KIR2DL2 expression ratio) stood at 0.0006; with AML patients (FIG. 2B: OS versus 2DS2/2DL2 ratio), 0.0048; in the series on AML patients (FIG. 4A: PFS versus 2DS5/2DL5A ratio), 0.0294; in the series with AML patients (FIG. 6A: GZMM/OS) it was 0.5688; with AML patients (FIG. 6A: GZMM/PFS), 0.5568. Besides, the “1-4th Q Median (survival)” value with AML patients (GSE8970 (CTEP-20), Front Line Elderly AML, 2DS2/2DL2 ratio 1st-4th quintile) was 179 days. The HR in the series on AML patients (GSE8970 (CTEP-20), Front Line Elderly AML, 2DS2/2DL2 ratio 5th Q versus rest) was 0.21. Besides, the “5th Q Median (survival)” value with AML patients (GSE8970 (CTEP-20), Front Line Elderly AML, 2DS2/2DL2 ratio highest quintile) is on record as 754 days. For the same compound, the “all Median (survival)” value in the series with AML patients (GSE8970 (CTEP-20), Front Line Elderly AML, all patients) was determined as 233 days. Further, in the series with AML patients (KIR2DS2 high versus low, 34 AML patients), the “Hazards Ratio” value turned out to be 0.303. The PFS is given as 65 days in series [1] (AML patients with mutant N-RAS) and 157 days in series [1] (setting [6]). Besides, the “ORR (response rate)” value in series [1] (AML patients with mutant N-RAS) is 27%; in series [1] (setting [6]), 43%. Further, the “number of patients with confirmed objective partial responses (PR)” value in series [2] (of 3 HPV negative relapsed/refractory head-and-neck carcinoma patients, 900 mg b.i.d. days 1-7 and 15-21 of 28 day cycles) came to 2. In addition, the “duration of disease stabilization” value in series [2] (third head-and-neck carcinoma patient) is greater than 8 months; in series [3] (the three individual salivary gland cancer patients with stabilization), > 7 months and 9 months and > 11 months. Further, the “number of patients with disease stabilization beyond six months” value in series [3] (of 5 patients with salivary gland cancers with HRAS mutations) was found to be 3.

(Values after US10292979B2, “Methods of treating cancer patients with farnesyltransferase inhibitors” (Kura Oncology, Inc., priority 2015, dated 2019).)
